Assays:
[1] = test system: rats; assay: Urine osmolarity and urine volume after tracheal instillation of AVP during 5% glucose infusion; assay type: in vivo, rat; settings: 0.6 units AVP by tracheal instillation after 30 minutes of 5% glucose infusion at 10 ml/hr
Protocol: The trachea was cannulated for drug delivery.
This example illustrates the effect of surfactant on pulmonary vasopressin (AVP) absorption. The experimental details were as follows. 5% glucose was infused at 10 ml/hr throughout the experiment. Urine osmolarity and urine volume resulting from glucose administration alone was contrasted with (1) a delivery of 0.6 units AVP, and (2) delivery of 0.6 units of AVP with 60 μl of surfactant (at a concentration of 40 mg/ml). In (1) and (2) the delivery of AVP and AVP with surfactant was by instillation through the trachea after 30 minutes of glucose infusion which infusion continued. FIGS. 3(a) and (b) show the results in term of urine osmolarity and volume respectively. Infusion of 5% glucose should have the effect of decreasing urine osmolarity and increasing urine volume.

[2] = test system: rats; assay: Blood glucose after intravenous or tracheal delivery of insulin in cannulated rats
Protocol: A sufficient number of rats weighing between 350-400 g were selected. In each rat the carotid artery and jugular vein were cannulated for blood sampling and fluid infusion. The trachea was cannulated for drug delivery. Fluids given through the trachea were either in a volume of 100 μl or 200 μl given in two separate doses 30 minutes apart. 40 μl of insulin (at a concentration of 200 units/ml) was mixed with 60 μl of lung surfactant (at a concentration of 40 mg/ml) and was administered by the tracheal route. Insulin without surfactant was administered intravenously to a control sample.

## NC(=O)CC[C@@H]1NC(=O)[C@H](Cc2ccccc2)NC(=O)[C@H](Cc2ccc(O)cc2)NC(=O)[C@@H](N)CSSC[C@@H](C(=O)N2CCC[C@H]2C(=O)N[C@@H](CCCN=C(N)N)C(=O)NCC(N)=O)NC(=O)[C@H](CC(N)=O)NC1=O [AVP, vasopressin]
[1]; FIG. 3(a)
  effect on urine osmolarity: increases urine osmolarity
[1]; FIG. 3(b)
  effect on urine volume: reduces urine volume

## insulin
[2]; intravenous insulin, FIG. 1(a)
  time after which glucose concentration begins to rise again: approximately 60 mins
[2]; tracheal delivery of 8 units (40 μl of 200 units/ml), hypoglycemic effect, FIG. 1(b)
  intravenous insulin dose equivalent to tracheal delivery of 8 units of insulin: 0.5 units
[2]; tracheal delivery of 8 units, estimated from the equivalent intravenous dose
  share of insulin that enters the bloodstream: about 6.25%
[2]; tracheal delivery, over a three hour period, FIG. 1(b)
  duration of hypoglycemic effect: no significant increase in glucose concentration

From patent US5451569A, “Pulmonary drug delivery system” (Hong Kong University of Science and Technology R & D …, priority 1994, dated 1995)
